Measured values as given in publication PMC11997985, “Synthesis and In Vitro Profiling of Psilocin Derivatives: Improved Stability and Synthetic Properties” (Journal of Medicinal Chemistry, 2025).
“And” between values parts separate entries of the source, which are not always exact repeats. Equal entries are not always repeated. Marks after values point to notes of the source that are not given here.

Experiments:
[1] = Stability in simulated stomach acid (0.10 M HCl); conditions: 0.10 M HCl (simulated stomach acid)
[2] = Solubility, screen method, phosphate buffer pH 7.4, 1% DMSO; assay type: physicochemical; conditions: phosphate buffer with 1% DMSO; 100 mM phosphate buffer pH 7.4, 1% DMSO; assay range 0.1 to 100 μM
[3] = Peak area in microsome suspension compared with compounds in solution; assay type: in vitro ADME, human; conditions: peak area 15 seconds after addition of NADPH versus same amount (125 nM) in H2O/EtOH
Description: (§1) were taken at three timepoints, and the degradation was compared to determine if it was dependent on NADPH. Compound 4k […]
(§2) without the addition of NADPH. […]
(§3) microsomes that need to be activated by a co -factor.
(§4) Table S5 Percent of peak area found in microsome suspension 15 seconds after the addition of NADPH in comparison with the same amount dissolved in H2O/EtOH
(§5) No. Area at 0.25 min. in Area in solution % found in microsomes/NADPH (125 nM) microsome
(§6) Comparison with compounds in solution. A comparison was made between the peak area of the compounds in solution with that obtained in the microsome suspension directly after the addition of NADPH (about 0.25 minutes) (Table S5). Before the addition of NADPH, the compounds are equilibrated in the microsome suspension for approximately five minutes. All compounds were prepared in solution by diluting a portion of the DMSO solutions with H2O/EtOH (75:25) to 125 nM (the final concentration of compounds for analysis in the microsome assay).
(§7) For the compounds where no results from the microsome assay could be reported due to low peak area (4d, 4e, 4f & 5), less than one percent of the expected peak area as compared with the area in solution was detected. […]
(§8) degrade rapidly before the addition of the co-factor after five minutes in incubation. For compounds 4g, 4h, 4i & 4j, which were […]
(§9) higher relative peak areas were found. […]
(§10) without NADPH was only found at 15% of the area seen in solution in the microsome suspension.

[4] = Metabolic stability in human microsomes; assay type: in vitro ADME; conditions: for Metabolic stability in human microsomes: 37 °C, 0.5 mg/mL protein, 1 μM compound, 1 mM NADPH; for Comment on microsome assay: Table S3
[5] = Chemical stability in 1.0 M NaHCO3 and 1.0 M HCl
[6] = Co-factor experiment: microsome suspension with and without NADPH; assay type: in vitro ADME, human; conditions: for Co-factor experiment: degradation with and without addition of NADPH compared
Description: Therefore, additional experiments comparing stability with and without the addition of NADPH cofactor and a very short incubation period were performed (Tables S4 and S5). […] Due to the rapid observed degradation in microsomes, we decided to investigate the stability of five compounds in human plasma, aiming for a broad range of stabilities (Table 2, Table S6). It should be noted that esterase-labile compounds are notoriously difficult to study in microsomal stability studies.[36]
Table S3 Evaluation of metabolic stability in human microsomes
No. Metabolic stability Comment
4k <10/<10 Low retention in chromatography
8 <10/<10 Low retention in chromatography.
Table S4 Results from the modified microsome assay where degradation with and without the addition of NADPH was compared […]
4d Very low peak area for the first time point,
4e Very low peak area for the first time point,
4f Very low peak area for the first time point,
5 Very low peak area for the first time point,
8 No degradation without co -factor […]
metabolism by the microsomes (consisting mainly of cytochrome P450 enzymes) or if it was due to other factors, the compounds (with the exception of 4k) were incubated in the microsome suspension both with and without the addition of NADPH. Samples […]
as §1, §2, §3, §4, §5, §6, §7, §8, §9, §10

[7] = cited from earlier work

SMILES	half-life at 5 mM [1] [h]	solubility [2] [µM]	% found in microsome suspension [3] [%]	Metabolic stability in human microsomes [4]	Comment on microsome assay [4]	half-life at 5 mM ([5]; 1.0 M HCl) [h]	half-life at 5 mM ([5]; 1.0 M NaHCO3) [h]	Co-factor experiment [6]	half-life at 24 h, 5 mM ([5]; 1.0 M NaHCO3) [h]	microsomal CLint ([6]; human, human microsome suspension, both with and without the addition of NADPH, read-out: intrinsic clearance) [µL/min/mg]	half-life at 24 h, 5 mM ([5]; 1.0 M HCl) [h]	degradation of psilocin under UV radiation ([7]; 254 nm, in EtOH, after 1.75 h) [%]	degradation of psilocin in NaOH solution ([7]; NaOH solution (1 M), after 2 h, ref 46 (Barrow et al.)) [%]	degradation of psilocin in oxidative conditions ([7]; oxidative conditions)
CN(C)CCc1c[nH]c2cccc(OS(=O)(=O)O)c12 [Compound 6]	> 167	> 90	15	>200 μL/min/mg protein	Rapid degradation	> 167	> 167	No degradation without co-factor	–	–	–	–	–	–
CN(C)CCc1c[nH]c2cccc(OC(=O)c3ccccc3)c12.O=C(O)/C=C/C(=O)O [Compound 4h]	> 167	> 90	44	>200^a μL/min/mg protein and >200 μL/min/mg protein	Rapid degradation	> 167	–	Degradation without co-factor	150	> 200	–	–	–	–
CCCCC(=O)Oc1cccc2[nH]cc(CCN(C)C)c12.O=C(O)/C=C/C(=O)O [Compound 4c]	> 167	87	0.2	>200^a μL/min/mg protein and >200 μL/min/mg protein	Rapid degradation	–	–	No degradation without co-factor	50	–	13.3	–	–	–
CN(C)CCc1c[nH]c2cccc(O)c12 [psilocin freebase, 4-hydroxy-N,N-dimethyltryptamine]	–	–	–	–	–	–	–	–	–	–	–	9	60	complete degradation after only two hours
CCCC(=O)Oc1cccc2[nH]cc(CCN(C)C)c12.O=C(O)/C=C/C(=O)O [Compound 4b]	> 167	87	0.3	>200^a μL/min/mg protein and >200 μL/min/mg protein	Rapid degradation	–	–	No degradation without co-factor	65	–	15	–	–	–
